System: Carrageenan pleurisy
Assay: Carrageenan Pleurisy Assay
Format: in vivo
Conditions: IP route, rat
Protocol: Assessment of another activity is provided by the carrageenan pleurisy assay. This assay indicates antiinflammatory activity. Carrageenan pleurisy is induced as previously described by Carter, G. W., et al., in J. Pharm. Pharmacol 34:66-67, 1982. Carrageenan ([…]) is injected intrapleurally in a 0.25 ml volume of pyrogen-free saline. Four hours later, the rats are sacrificed and 2 ml of a phenol red solution (325 mg phenol red in 1 liter of 0.05 M phosphate buffered saline) are added to each pleural cavity. The contents of the cavities are mixed and transferred to glass test tubes. A 50 pl aliquot is removed from each tube and exudate cells are counted after red blood cells lysis (with Zapoglobin; Coulter Electronics, Hialeah FL) using a Coulter model ZBI counter. The remaining exudate-phenol red mixture is centrifuged at […] for 15 minutes. One hundred pl of the supernatent fluid is diluted with 3.9 ml of phosphate buffer (0.072 M of tribasic sodium phosphate Na3PO4·12H2O, in water) and the absorbance is measured at 650 nm.
Exudate volume is calculated as follows: [formula] where V1 = unknown volume of exudate, V2 = volume of dye added to cavity (2 ml), A1 = absorbance of exudate (assumed to be zero), A2 = absorbance of the phenol red solution, A3 = absorbance of exudate and phenol red solution.
Inhibition of exudate or formation is calculated by the following equations: • % inhibition (exudate) = [formula] • % inhibition (cell count) = [formula] ID50 values are calculated by Probit analysis.
The compound of Example 1 was adminstered one hour prior to carrageenan injection.

| SMILES | % Inhibition Exudate (3 mg/kg) | % Inhibition WBC (3 mg/kg) | % Inhibition Exudate (10 mg/kg) | % Inhibition WBC (10 mg/kg) | % Inhibition Exudate (1 mg/kg) | % Inhibition WBC (1 mg/kg) | % Inhibition Exudate (30 mg/kg) | % Inhibition WBC (30 mg/kg) |
| --- | --- | --- | --- | --- | --- | --- | --- | --- |
| OC[C@H]1O[C@@H](n2cnc3c(NC4COc5c(Cl)cccc5C4)ncnc32)[C@H](O)[C@@H]1O (stereo partly shown) [Example 5] | 22.7% | 27.2% | 40.2% | 68.0% | – | – | – | – |
| COc1ccc2c(c1)CC(Nc1ncnc3c1ncn3[C@@H]1O[C@H](CO)[C@@H](O)[C@H]1O)CO2 (stereo partly shown) [Example 6] | 42.2% | 37.5% | – | – | 50.9% | 49.8% | – | – |
| Cc1cc2c(cc1C)OCC(Nc1ncnc3c1ncn3[C@@H]1O[C@H](CO)[C@@H](O)[C@H]1O)C2 (stereo partly shown) [Example 9, N^6-[6,7-Dimethyl-3-chromanylamino]adenosine] | 12.5% | 13.0% | – | – | – | – | 31.9% | 30.6% |
| OC[C@H]1O[C@@H](n2cnc3c(NC4CCSc5ccccc54)ncnc32)[C@H](O)[C@@H]1O (stereo partly shown) [Example 15] | – | – | 63.9% | -16.9% | 13.5% | -10.7% | – | – |

From patent EP0181109B1, “N6-benzopyrano- and benzothiopyrano-adenosines” (WARNER-LAMBERT COMPANY, priority 1984, dated 1986)
